Assays:
[1] = target: T1, Interleukin-1 receptor-associated kinase 4 (Homo sapiens, UniProt Q9NWZ3); assay: Inhibition of IRAK4 in human PBMC assessed as inhibition of LTA-induced IL-6 production preincubated for 30 mins followed by LTA-stimulation and measured after 5 hrs by ELISA; type: cell-based
T1 sequence (Q9NWZ3 whole entry): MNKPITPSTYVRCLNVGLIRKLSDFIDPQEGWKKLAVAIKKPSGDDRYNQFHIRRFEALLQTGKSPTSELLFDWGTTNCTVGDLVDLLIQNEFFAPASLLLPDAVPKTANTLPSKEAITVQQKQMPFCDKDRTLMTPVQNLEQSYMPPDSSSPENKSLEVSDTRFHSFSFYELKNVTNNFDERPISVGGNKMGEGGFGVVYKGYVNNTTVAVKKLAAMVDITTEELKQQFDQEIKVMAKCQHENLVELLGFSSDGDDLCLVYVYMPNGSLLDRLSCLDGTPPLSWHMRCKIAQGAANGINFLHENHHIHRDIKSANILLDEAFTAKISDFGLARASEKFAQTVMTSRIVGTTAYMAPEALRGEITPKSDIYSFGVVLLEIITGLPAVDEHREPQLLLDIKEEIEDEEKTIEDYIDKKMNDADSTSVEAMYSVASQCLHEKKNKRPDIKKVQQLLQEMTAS

[2] = target: T1, Interleukin-1 receptor-associated kinase 4; assay: Inhibition of IRAK4 (unknown origin) using FL-IPTSPITTTYFFFKKK peptide and ATP as substrate incubated for 60 mins by fluorescence based caliper assay
Homo sapiens [3] = organism: Homo sapiens; assay: Selectivity index, ratio of IC50 for N-terminal His6-tagged human full length recombinant LCK expressed in baculovirus infected Sf21 cells to IC50 for IRAK4 (unknown origin)
[4] = Stability in mouse liver microsomes assessed as parent compound remaining measured after 10 mins; type: ADME, Microsome; conditions: read-out: Stability
[5] = Stability in human liver microsomes assessed as parent compound remaining; type: ADME, Microsome
[6] = AUC in mouse at 2 mg/kg, iv administered as infusion measured up to 24 hrs by LC-MS analysis; type: ADME, organism-based; parameters: time < 24 hr, dose 2 mg/kg, route intravenous; conditions: in vivo
[7] = target: T2, Interleukin-1 receptor-associated kinase 4 (Mus musculus) (UniProt Q8R4K2); assay: In vivo Inhibition of IRAK4 in BALB/c mouse assessed as suppression of TLR2-mediated LTA-induced IL-6 level in serum at 50 mg/kg, po treated 30 mins prior to LTA-stimulation and measured after 90 mins by ELISA relative to control; type: functional, organism-based
T2 sequence (whole entry): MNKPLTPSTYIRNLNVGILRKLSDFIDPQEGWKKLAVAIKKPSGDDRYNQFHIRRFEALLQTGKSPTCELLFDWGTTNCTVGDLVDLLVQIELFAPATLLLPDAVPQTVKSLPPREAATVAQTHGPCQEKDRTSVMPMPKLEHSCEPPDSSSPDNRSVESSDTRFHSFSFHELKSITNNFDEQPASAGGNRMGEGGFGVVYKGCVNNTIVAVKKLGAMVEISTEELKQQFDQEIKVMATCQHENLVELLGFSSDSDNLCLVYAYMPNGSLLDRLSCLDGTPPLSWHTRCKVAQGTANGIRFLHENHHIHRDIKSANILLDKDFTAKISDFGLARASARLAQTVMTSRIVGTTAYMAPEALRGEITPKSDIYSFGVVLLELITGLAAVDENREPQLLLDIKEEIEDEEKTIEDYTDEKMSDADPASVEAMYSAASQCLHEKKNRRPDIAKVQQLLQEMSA

[8] = target: T1, Interleukin-1 receptor-associated kinase 4; assay: Inhibition of IRAK4 in human whole blood assessed as inhibition of LTA-induced IL-6 production preincubated for 30 mins followed by LTA-stimulation and measured after 5 hrs by ELISA; type: tissue-based
[9] = AUC in mouse at 10 mg/kg, po via gavage measured up to 24 hrs by LC-MS analysis; type: ADME, organism-based; parameters: time < 24 hr, dose 10 mg/kg, route oral; conditions: in vivo
[10] = Permeability across apical to basolateral side in human Caco2 cells; conditions: Caco-2
[11] = target: T3, Interleukin-1 receptor-associated kinase 4 (Mus musculus, UniProt Q8R4K2); assay: Inhibition of IRAK4 in mouse whole blood; type: tissue-based
T3 sequence (Q8R4K2 whole entry): T2 sequence (whole entry)

[12] = target: T2, Interleukin-1 receptor-associated kinase 4 (Mus musculus); assay: In vivo Inhibition of IRAK4 in BALB/c mouse assessed as suppression of TLR2-mediated LTA-induced IL-6 level in serum at 25 mg/kg, po treated 30 mins prior to LTA-stimulation and measured after 90 mins by ELISA relative to control; type: functional, organism-based
[13] = Drug uptake in LTA-treated BALB/c mouse serum at 25 mg/kg, po treated 30 mins prior to LTA-stimulation and measured after 90 mins by LC-MS analysis; type: ADME, organism-based; conditions: read-out: Drug uptake
[14] = Time during which drug concentration exceeds IC50 for IRAK4 in mouse whole blood in mouse at 10 mg/kg, po; type: ADME, organism-based; conditions: in vivo
[15] = Volume of distribution at steady state in mouse at 2 mg/kg, iv administered as infusion or 10 mg/kg, po via gavage measured up to 24 hrs by LC-MS analysis; type: ADME, organism-based; conditions: in vivo, read-out: Vdss
[16] = Drug uptake in LTA-treated BALB/c mouse serum at 10 mg/kg, po treated 30 mins prior to LTA-stimulation and measured after 90 mins by LC-MS analysis; type: ADME, organism-based; conditions: read-out: Drug uptake
[17] = Half life in mouse at 2 mg/kg, iv administered as infusion or 10 mg/kg, po via gavage measured up to 24 hrs by LC-MS analysis; type: ADME, organism-based; conditions: in vivo
[18] = Oral bioavailability in mouse at 10 mg/kg administered via gavage measured up to 24 hrs by LC-MS analysis; type: ADME, organism-based; conditions: in vivo
[19] = Clearance in mouse at 2 mg/kg, iv administered as infusion or 10 mg/kg, po via gavage measured up to 24 hrs by LC-MS analysis; type: ADME, organism-based; conditions: in vivo
[20] = target: T2, Interleukin-1 receptor-associated kinase 4 (Mus musculus); assay: In vivo Inhibition of IRAK4 in BALB/c mouse assessed as suppression of TLR2-mediated LTA-induced IL-6 level in serum at 10 mg/kg, po treated 30 mins prior to LTA-stimulation and measured after 90 mins by ELISA relative to control; type: functional, organism-based
[21] = Drug uptake in LTA-treated BALB/c mouse serum at 50 mg/kg, po treated 30 mins prior to LTA-stimulation and measured after 90 mins by LC-MS analysis; type: ADME, organism-based; conditions: read-out: Drug uptake
[22] = Volume of distribution at steady state in mouse at 2 mg/kg, iv administered as infusion or 3 mg/kg, po via gavage measured up to 24 hrs by LC-MS analysis; type: ADME, organism-based; conditions: in vivo, read-out: Vdss
[23] = AUC in mouse at 3 mg/kg, po via gavage measured up to 24 hrs by LC-MS analysis; type: ADME, organism-based; parameters: dose 3 mg/kg, time < 24 hr, route oral; conditions: in vivo
[24] = Half life in mouse at 2 mg/kg, iv administered as infusion or 3 mg/kg, po via gavage measured up to 24 hrs by LC-MS analysis; type: ADME, organism-based; conditions: in vivo
[25] = Oral bioavailability in mouse at 3 mg/kg administered via gavage measured up to 24 hrs by LC-MS analysis; type: ADME, organism-based; conditions: in vivo
[26] = Clearance in mouse at 2 mg/kg, iv administered as infusion or 3 mg/kg, po via gavage measured up to 24 hrs by LC-MS analysis; type: ADME, organism-based; conditions: in vivo
Homo sapiens [27] = organism: Homo sapiens; assay: Selectivity index, ratio of IC50 for recombinant N-terminal GST-tagged human cKit (544 to end residues) expressed in baculovirus infected Sf21 cells to IC50 for IRAK4 (unknown origin)
Cytochrome P450 3A4 = Cytochrome P450 3A4 (Homo sapiens, UniProt P08684); assay: Inhibition of CYP3A4 (unknown origin); type: ADME
Mus musculus [28] = assay: Protection against imiquimod-induced psoriasis in C57BL/6 mouse assessed as inhibition of skin erythema level at 3 mg/kg, po dosed via gavage once daily and measured on day 6 relative to control; type: functional; conditions: C57BL/6, po, 144 h
Mus musculus [29] = assay: Protection against imiquimod-induced psoriasis in C57BL/6 mouse assessed as inhibition of skin scaling at 3 mg/kg, po dosed via gavage once daily and measured on day 6 relative to control; type: functional; conditions: C57BL/6, po, 144 h

Cytochrome P450 3A4, sequence (P08684 whole entry): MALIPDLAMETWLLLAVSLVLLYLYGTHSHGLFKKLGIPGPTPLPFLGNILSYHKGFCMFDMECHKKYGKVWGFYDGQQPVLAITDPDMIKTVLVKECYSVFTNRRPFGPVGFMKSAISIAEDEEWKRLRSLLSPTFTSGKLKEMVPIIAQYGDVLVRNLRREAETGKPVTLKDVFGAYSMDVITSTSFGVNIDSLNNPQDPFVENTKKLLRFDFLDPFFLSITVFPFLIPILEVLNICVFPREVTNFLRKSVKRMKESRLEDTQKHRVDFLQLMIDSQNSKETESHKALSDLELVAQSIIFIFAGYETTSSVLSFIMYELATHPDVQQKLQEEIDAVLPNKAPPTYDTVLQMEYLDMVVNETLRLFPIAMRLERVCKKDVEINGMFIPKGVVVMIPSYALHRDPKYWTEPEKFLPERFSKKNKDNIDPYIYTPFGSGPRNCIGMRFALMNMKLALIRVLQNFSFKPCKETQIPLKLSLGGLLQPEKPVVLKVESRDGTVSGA

SMILES | IC50 [1] [nM] | IC50 [2] [nM] | Ratio IC50 (Homo sapiens [3]) | remaining at 10 min [4] [%] | Stability [5] [%] | IC50 [8] [nM] | Papp A→B [10] [×10⁻⁶ cm/s] | other results
CC(C)Nc1cc(Nc2ccc3ncsc3c2)ncc1C(=O)NC[C@@H](C)C(C)(C)O | 2900 | 19 | – | – | – | – | – | –
CC(C)(O)[C@@H](F)CNC(=O)c1cnc(Nc2ccc3ncsc3c2)cc1NC1CC1 | 730 | – | 110 | – | – | – | – | –
CCNC(=O)c1cnc(Nc2ccc3ncsc3c2)cc1NC(C)C | – | 15 | – | 45 | 74 | – | – | –
CC(C)(O)[C@H](F)CNC(=O)c1cnc(Nc2ccc3ncsc3c2)cc1NC1CC1 | 230 | 2.4 | 170 | 89 | 90 | 810 | 8.1 | AUC at 24 h [6]: 1.6 µM·h; inhibition [7]: 99%; AUC at 24 h [9]: 3.3 µM·h; IC50 [11]: 240 nM; inhibition [12]: 95%; concentration at 1.5 h [13]: 4.5 µM; T>IC50 [14]: <= 3 hr; Vd [15]: 2.1 L/kg; concentration at 1.5 h [16]: 0.41 µM; half-life [17]: 2.2 h; bioavailability [18]: 40%; clearance [19]: 47 mL/min/kg; inhibition [20]: 50%; concentration at 1.5 h [21]: 9.6 µM
CNC(=O)c1cnc(Nc2ccc3ncsc3c2)cc1N[C@H](CO)Cc1ccccc1 | – | – | – | 29 | 46 | – | < 1.5 | –
CC(C)Nc1cc(Nc2ccc3nonc3c2)ncc1C(=O)NC[C@@H](F)C(C)(C)O | 640 | 8.7 | 190 | 89 | 93 | 210 | 3.8 | AUC at 24 h [6]: 4.7 µM·h; Vd [22]: 3.2 L/kg; AUC at 24 h [23]: 4.6 µM·h; half-life [24]: 3.6 h; bioavailability [25]: 65%; clearance [26]: 14 mL/min/kg; Ratio IC50 (Homo sapiens [27]): 420
CC(C)Nc1cc(Nc2ccc3ncsc3c2)ncc1C(=O)NCCCO | 6900 | 24 | 16 | 87 | 84 | – | – | –
Cc1nc2ccc(Nc3cc(NC(C)C)c(C(=O)NC[C@@H](F)C(C)(C)O)cn3)cc2s1 | 1700 | 8 | 3500 | 78 | 92 | 12000 | – | Ratio IC50 (Homo sapiens [27]): 6200
CC(C)Nc1cc(Nc2ccc3ncsc3c2)ncc1C(=O)NC[C@@H](F)C(C)(C)O | 480 | 2.4 | 270 | 86 | 92 | 2000 | – | –
CNC(=O)c1cnc(Nc2ccc3ncsc3c2)cc1N[C@@H](c1ccccc1)[C@H](O)CO | – | – | – | 22 | 90 | – | < 1.5 | –
CC(C)Nc1cc(Nc2ccc3ncsc3c2)ncc1C(=O)NCCC(C)(C)O | 290 | – | 104 | 68 | 79 | 1100 | – | –
CC(C)Nc1cc(Nc2ccc3ncsc3c2)ncc1C(=O)NCCc1ccc(S(N)(=O)=O)cc1 | 1200 | 5.7 | 280 | 38 | 17 | – | < 1.5 | IC50 (Cytochrome P450 3A4): 900 nM
CNC(=O)c1cnc(Nc2ccc3ncsc3c2)cc1NC(C)C | 4500 | 21 | 28 | – | – | – | 21 | –
CC(C)Nc1cc(Nc2ccc3nsnc3c2)ncc1C(=O)NC[C@@H](F)C(C)(C)O | 320 | – | 93 | 80 | 74 | 1160 | – | Ratio IC50 (Homo sapiens [27]): > 15000
C[C@@H]1C[C@H]2[C@@H]3CCC4=CC(=O)C=C[C@]4(C)[C@@]3(F)[C@@H](O)C[C@]2(C)[C@@]1(O)C(=O)CO [DEXAMETHASONE] | – | – | – | – | – | – | – | inhibition in vivo at 3 mg/kg (Mus musculus [28]): 37%; inhibition in vivo at 3 mg/kg (Mus musculus [29]): 45%
CC(C)Nc1cc(Nc2ccn3nccc3c2)ncc1C(=O)NC[C@@H](F)C(C)(C)O | 410 | – | > 380 | 85 | 78 | 650 | – | Ratio IC50 (Homo sapiens [27]): 240
CC(C)Nc1cc(Nc2ccc3ncsc3c2)ncc1C(=O)NCC(F)(F)C(C)(C)O | 570 | – | 320 | 61 | 71 | 2800 | – | –
CCCNC(=O)c1cnc(Nc2ccc3ncsc3c2)cc1NC(C)C | – | 12 | – | 32 | 52 | – | – | –
CCCCNC(=O)c1cnc(Nc2ccc3ncsc3c2)cc1NC(C)C | – | 7 | – | 31 | 55 | – | – | –
CC(C)(O)CCNC(=O)c1cnc(Nc2ccc3ncsc3c2)cc1NC1CC1 | 290 | – | 200 | 99 | 65 | 900 | – | –

Reference: ChEMBL document CHEMBL4622963, “Optimization of Nicotinamides as Potent and Selective IRAK4 Inhibitors with Efficacy in a Murine Model of Psoriasis” (ACS Med Chem Lett, 2020)
